ChEMBL document CHEMBL5380782, “Design, Biological Evaluation, and Computer-Aided Analysis of Dihydrothiazepines as Selective Antichlamydial Agents” (J Med Chem, 2023)
Values after ≈ are worked out from the molar mass of the structure shown. Active and inactive are the calls of the source. The calls are words filed in the database; no cut-off is given here.

Tests used:
[1] = tested on: Chlamydia trachomatis; assay: Antibacterial activity against Chlamydia trachomatis serovar L2 infected in HEp-2 cells assessed as bacterial growth inhibition incubated for 16 hrs by IFA assay; type: functional, organism-based; details: serovar L2, HEp-2, 16 h
[2] = tested on: Staphylococcus aureus; assay: Antimicrobial activity against Staphylococcus aureus USA 300 JE2 assessed as microbial growth inhibition incubated for 24 hrs by TTC staining based assay; type: functional
[3] = tested on: Bacteroides thetaiotaomicron; assay: Antimicrobial activity against Bacteroides thetaiotaomicron DSM 2079 assessed as microbial growth inhibition incubated for 48 hrs; type: functional
[4] = tested on: Escherichia coli; assay: Antimicrobial activity against non-pathogenic Escherichia coli ATCC MG1655 assessed as microbial growth inhibition incubated for 24 hrs by TTC staining based assay; type: functional
[5] = tested on: Chlamydia trachomatis; assay: Antibacterial activity against Chlamydia trachomatis L2 infected in HEp-2 cells assessed as inhibition of infectious progeny incubated for 24 hrs by fluorescence microscopy; type: functional, organism-based; details: L2, HEp-2, 24 h
[6] = tested on: Blautia producta; assay: Antimicrobial activity against Blautia producta DSM 2950 assessed as microbial growth inhibition incubated for 48 hrs; type: functional
[7] = tested on: Acinetobacter baumannii; assay: Antimicrobial activity against Acinetobacter baumannii 2208 assessed as microbial growth inhibition incubated for 24 hrs by TTC staining based assay; type: functional
[8] = tested on: Pseudomonas aeruginosa; assay: Antimicrobial activity against Pseudomonas aeruginosa PA01 assessed as microbial growth inhibition incubated for 24 hrs by TTC staining based assay; type: functional
[9] = tested on: Lacticaseibacillus rhamnosus; assay: Antimicrobial activity against Lactobacillus rhamnosus CGMCC 1.3724 assessed as microbial growth inhibition incubated for 24 hrs by TTC staining based assay; type: functional
[10] = tested on: Escherichia coli; assay: Antimicrobial activity against Escherichia coli K12 assessed as microbial growth inhibition incubated for 24 hrs by TTC staining based assay; type: functional
[11] = tested on: Anaerostipes caccae; assay: Antimicrobial activity against Anaerostipes caccae […] assessed as microbial growth inhibition incubated for 48 hrs; type: functional
[12] = tested on: Lactiplantibacillus plantarum; assay: Antimicrobial activity against Lactobacillus plantarum DSM 20174 assessed as microbial growth inhibition incubated for 24 hrs; type: functional
[13] = tested on: Thomasclavelia ramosa; assay: Antimicrobial activity against Clostridium ramosum DSM 1402 assessed as microbial growth inhibition incubated for 48 hrs; type: functional
[14] = tested on: Chlamydia trachomatis; assay: Antibacterial activity against Chlamydia trachomatis serovar L2 infected in HEp-2 cells assessed as bacterial growth inhibition at 25 to 0.39 ug/ml incubated for 16 hrs by IFA assay; type: functional, organism-based; details: dose 25-0.39 µg/ml
[15] = tested on: Chlamydia trachomatis; assay: Inhibition of recombinant Chlamydia trachomatis ClpX ATPase activity assessed as reduction in ATP consumption at 25 ug/ml incubated for 60 mins by Kinase Glo assay relative to control; details: dose 25.0 µg/ml
[16] = Cytotoxicity against HEp-2 cells assessed as cell viability at 256 ug/ml incubated for 20 hrs by XTT assay relative to control; type: toxicity, cell-based; details: human, at 256 µg/mL, read-out: Activity
[17] = tested on: Salmonella typhimurium; assay: Mutagenicity in Salmonella typhimurium TA98 assessed as number of revertants per plate at 10 ug pretreated for 90 mins measured after 66 hrs by AMES test (reference value: 25.67 +/- 5.51); type: functional, Salmonella enterica subsp. enterica serovar Typhimurium; details: dose 10 µg; time 67.5 hrs
[18] = Cytotoxicity against HEK293 cells assessed as cell survival at 256 ug/ml incubated for 20 hrs by XTT assay relative to control; type: toxicity, cell-based; details: human, at 256 µg/mL, read-out: Survival
[19] = Cytotoxicity against HEC-1-A cells assessed as cell survival at 256 ug/ml incubated for 20 hrs by XTT assay relative to control; type: toxicity, cell-based; details: human, at 256 µg/mL, read-out: Survival
[20] = Cytotoxicity against HEK293 cells assessed as cell viability at 25 ug/ml incubated for 20 hrs by XTT assay relative to control; type: toxicity, cell-based; details: human, at 25 µg/mL, read-out: Activity
[21] = tested on: HEp-2; assay: Cytotoxicity against HEp-2 cells assessed as cell viability at 25 ug/ml incubated for 20 hrs by XTT assay relative to control; type: toxicity, cell-based; details: human, hep-2, 20 h, at 25 µg/mL
[22] = tested on: Salmonella typhimurium; assay: Mutagenicity in Salmonella typhimurium TA98 assessed as number of revertants per plate at 2.5 ug pretreated for 90 mins measured after 66 hrs in presence of S9 fraction by AMES test (reference value: 24.33 +/- 9.50); type: functional, Salmonella enterica subsp. enterica serovar Typhimurium; details: dose 2.5 µg; time 67.5 hrs
[23] = tested on: Salmonella typhimurium; assay: Mutagenicity in Salmonella typhimurium TA100 assessed as number of revertants per plate at 2.5 ug pretreated for 90 mins measured after 66 hrs in presence of S9 by AMES test (reference value: 201 +/- 9.90); type: functional, Salmonella enterica subsp. enterica serovar Typhimurium; details: dose 2.5 µg; time 67.5 hrs
[24] = tested on: Candida tropicalis; assay: Antimicrobial activity against Candida tropicalis 750 assessed as microbial growth inhibition by broth microdilution method; type: functional
[25] = tested on: Nakaseomyces glabratus; assay: Antimicrobial activity against Candida glabrata 2001 assessed as microbial growth inhibition by broth microdilution method; type: functional
[26] = tested on: Pichia kudriavzevii; assay: Antimicrobial activity against Pichia kudriavzevii 6558 assessed as microbial growth inhibition by broth microdilution method; type: functional

| SMILES | IC50 ([1]; read-out: IC50) | IC50 ([1]; read-out: pIC50 (converted)) | also measured |
| --- | --- | --- | --- |
| N#Cc1ccc(C2Nc3ccccc3NC3=C2C(=O)c2ccccc23)cc1 (stereo not given) | 20.9 µg/mL |  |  |
| CC[C@H]1OC(=O)[C@H](C)[C@@H](O[C@H]2C[C@@](C)(OC)[C@@H](O)[C@H](C)O2)[C@H](C)[C@@H](O[C@@H]2O[C@H](C)C[C@H](N(C)C)[C@H]2O)[C@](C)(O)C[C@@H](C)CN(C)[C@H](C)[C@@H](O)[C@]1(C)O [AZITHROMYCIN] |  |  | MIC [2]: 2 µg/mL (≈ 2.67 µM); MIC [3]: 0.5 µg/mL (≈ 0.668 µM); MIC [4]: 2 µg/mL (≈ 2.67 µM); IC50 [5]: 0.06 µg/mL (≈ 0.0801 µM); MIC [6]: < 0.06 µg/mL; MIC [7]: < 1 µg/mL; MIC [8]: 125 µg/mL (≈ 167 µM); MIC [9]: 1 µg/mL (≈ 1.34 µM); MIC [10]: < 1 µg/mL; MIC [11]: > 125 µg/mL; MIC [12]: 2 µg/mL (≈ 2.67 µM); MIC [13]: < 0.06 µg/mL |
| N#Cc1ccc(C2SCCNC3=C2C(=O)c2ccccc23)cc1 (stereo not given) |  |  | inhibition [14]: inactive; inhibition [15]: 20% |
| O=C1C2=C(Nc3ccccc3SC2c2cccc([N+](=O)[O-])c2)c2ccccc21 (stereo not given) | 6.35 µg/mL |  |  |
| O=C1C2=C(Nc3ccccc3SC2c2cccc(C(F)(F)F)c2)c2ccccc21 (stereo not given) | 5.18 µg/mL |  |  |
| O=C1C2=C(Nc3ccccc3SC2c2cccc(Cl)c2)c2ccccc21 (stereo not given) | 4.79 µg/mL | 12.9 µM |  |
| O=C1C2=C(Nc3cc(C(F)(F)F)ccc3SC2c2ccc(Br)cc2)c2ccccc21 (stereo not given) | 6.93 µg/mL |  |  |
| N#Cc1cccc(C2Sc3ccccc3NC3=C2C(=O)c2ccccc23)c1 (stereo not given) | 9 µg/mL |  |  |
| Cc1ccccc1C1Sc2ccccc2NC2=C1C(=O)c1ccccc12 (stereo not given) | 7.82 µM | 7.94 µM |  |
| O=C(O)c1ccc(C2Sc3ccccc3NC3=C2C(=O)c2ccccc23)cc1 (stereo not given) |  |  | inhibition [14]: inactive |
| N#Cc1ccc(C2Sc3ccccc3NC3=C2C(=O)c2ccccc23)cc1 (stereo not given) | 10.2 µg/mL |  |  |
| O=C1C2=C(Nc3ccccc3SC2c2ccc(O)cc2)c2ccccc21 (stereo not given) | 14.4 µg/mL | 39.8 µM |  |
| COc1ccccc1C1Sc2ccc(C(F)(F)F)cc2NC2=C1C(=O)c1ccccc12 (stereo not given) | 2.46 µM | 2.51 µM | viability at 20 h, 256 ug/ml [16]: 100% |
| Cc1ccc(C2Nc3ccccc3NC3=C2C(=O)c2ccccc23)cc1 (stereo not given) | 15 µg/mL |  |  |
| O=C1C2=C(Nc3ccccc3SC2c2ccc(Cl)cc2Cl)c2ccccc21 (stereo not given) | 6.37 µg/mL | 15.5 µM |  |
| COc1cccc(C2C3=C(Nc4ccccc4S2(=O)=O)c2ccccc2C3=O)c1 (stereo not given) | 10 µg/mL |  |  |
| Nc1ccc([N+](=O)[O-])cc1N |  |  | Activity [17]: 34.5 |
| O=C1C2=C(NCCSC2c2ccc(Br)cc2)c2ccccc21 (stereo not given) | 21.3 µg/mL |  |  |
| CC(=O)Oc1ccc(C2Sc3ccccc3NC3=C2C(=O)c2ccccc23)cc1 (stereo not given) | 7.18 µg/mL |  |  |
| COc1ccc(C2SCCNC3=C2C(=O)c2ccccc23)cc1 (stereo not given) | 16.1 µg/mL |  |  |

| SMILES | IC50 ([1]; read-out: IC50) | IC50 ([1]; read-out: pIC50 (converted)) | also measured |
| --- | --- | --- | --- |
| O=C1C2=C(Nc3ccccc3SC2c2ccc([N+](=O)[O-])cc2)c2ccccc21 (stereo not given) | 9.01 µg/mL |  |  |
| Cc1cccc(C2Sc3ccccc3NC3=C2C(=O)c2ccccc23)c1F (stereo not given) | 4.69 µg/mL | 12.6 µM | viability at 20 h, 256 ug/ml [18]: ≥ 75%; viability at 20 h, 256 ug/ml [19]: ≥ 75%; viability at 20 h, 256 ug/ml [16]: 50%; IC50 [5]: 7.13 µg/mL (≈ 19.1 µM); viability at 20 h, 25 ug/ml [20]: 78%; inhibition [15]: 20% |
| O=C1C2=C(Nc3ccccc3SC2c2ccc(OC(F)(F)F)cc2)c2ccccc21 (stereo not given) | 7.44 µg/mL | 17.4 µM |  |
| O=C1C2=C(Nc3ccccc3SC2c2cccc(O)c2)c2ccccc21 (stereo not given) | 16.5 µg/mL | 45.7 µM |  |
| COc1ccccc1C1Sc2ccccc2NC2=C1C(=O)c1ccccc12 (stereo not given) | 3.32 µg/mL | 8.91 µM | viability at 20 h, 256 ug/ml [18]: ≥ 75%; viability at 20 h, 256 ug/ml [19]: ≥ 75%; viability at 20 h, 256 ug/ml [16]: 50%; IC50 [5]: 6.41 µg/mL (≈ 17.3 µM); Activity [21]: 73% |
| Nc1ccc2cc3ccccc3cc2c1 [2-AMINOANTHRACENE] |  |  | Activity [22]: 137; Activity [23]: 1256 |
| COc1ccc(C2Sc3ccccc3N=C3C2=C(O)c2ccccc23)cc1 (stereo not given) | 14.7 µg/mL |  |  |
| Cc1ccc(C2SCCNC3=C2C(=O)c2ccccc23)cc1 (stereo not given) | 21.4 µg/mL | 69.2 µM |  |
| O=C1C2=C(Nc3ccccc3SC2c2ccc(Cl)cc2)c2ccccc21 (stereo not given) | 6.59 µg/mL | 17.4 µM |  |
| COc1ccc(C2Sc3ccc(C(F)(F)F)cc3NC3=C2C(=O)c2ccccc23)cc1 (stereo not given) | 12.3 µg/mL | 28.2 µM |  |
| Nc1ccc(C2Sc3ccccc3NC3=C2C(=O)c2ccccc23)cc1 (stereo not given) | 17.6 µg/mL | 49 µM |  |
| O=C1C2=C(Nc3ccccc3SC2c2cccs2)c2ccccc21 (stereo not given) | 7.36 µg/mL |  |  |
| O=C1C2=C(Nc3ccccc3SC2c2ccc(OCc3ccccc3)cc2)c2ccccc21 (stereo not given) | 22.8 µg/mL | 51.3 µM |  |
| N#Cc1ccccc1C1Sc2ccc(C(F)(F)F)cc2NC2=C1C(=O)c1ccccc12 (stereo not given) | 1.61 µM | 1.62 µM | viability at 20 h, 256 ug/ml [16]: 100% |
| COc1ccc(C2Nc3ccccc3NC3=C2C(=O)c2ccccc23)cc1 (stereo not given) | 22.6 µg/mL | 53.7 µM |  |
| O=C1C2=C(Nc3cc(C(F)(F)F)ccc3SC2c2cccs2)c2ccccc21 (stereo not given) | 6.53 µg/mL |  |  |
| OC(Cn1cncn1)(Cn1cncn1)c1ccc(F)cc1F [FLUCONAZOLE] |  |  | MIC [24]: 0.5 µg/mL (≈ 1.63 µM); MIC [25]: 2 µg/mL (≈ 6.53 µM); MIC [26]: 16 µg/mL (≈ 52.2 µM) |
| O=C1C2=C(Nc3ccccc3SC2c2ccc(-c3ccccc3)cc2)c2ccccc21 (stereo not given) |  |  | inhibition [14]: inactive |
| Cc1ccc(C2Sc3ccccc3NC3=C2C(=O)c2ccccc23)cc1 (stereo not given) | 6.72 µg/mL |  |  |
| O=C1C2=C(Nc3ccccc3SC2c2ccccc2C(=O)O)c2ccccc21 (stereo not given) |  |  | inhibition [14]: inactive; inhibition [15]: 20% |
